Results from patent publication US12599136B2, “Substituted isophthalic acid diamides and their use as herbicides” (Bayer Aktiengesellschaft, priority 2020, dated 2026).

How the values were obtained:
Format in all cases: in vivo
[1] = system: Abutilon theophrasti; test: Pre-emergence herbicidal action against ABUTH; conditions: visual score after 3 weeks vs untreated controls
Text: (§1) Seeds of monocotyledonous and dicotyledonous weed plants and crop plants are laid out in sandy loam soil in wood-fiber pots and covered with soil. The compounds of the invention, formulated in the form of wettable powders (WP) or as emulsion concentrates (EC), are then applied to the surface of the covering soil in the form of an aqueous suspension or emulsion at a water application rate equivalent to 600 to 800 l/ha, with addition of 0.2% wetting agent. After the treatment, the pots are placed in a greenhouse and kept under good growth conditions for the trial plants. The damage to the test plants is scored visually after a test period of 3 weeks by comparison with untreated controls (herbicidal activity in percent (%): 100% activity=the plants have died, 0% activity=like control plants). […] The tables below illustrate, in an illustrative manner, the post-emergence herbicidal action of the compounds of the invention, the herbicidal activity being stated in percent.

[2] = system: Viola tricolor; test: Post-emergence herbicidal action against VIOTR
Experimental: (§2) Seeds of monocotyledonous and dicotyledonous weed and crop plants are laid out in sandy loam soil in wood-fiber pots, covered with soil and cultivated in a greenhouse under good growth conditions. 2 to 3 weeks after sowing, the test plants are treated at the one-leaf stage. The compounds of the invention, formulated in the form of wettable powders (WP) or as emulsion concentrates (EC), are then sprayed onto the green parts of the plants in the form of an aqueous suspension or emulsion at a water application rate equivalent to 600 to 800 l/ha, with addition of 0.2% wetting agent. After the test plants have been left to stand in the greenhouse under optimal growth conditions for about 3 weeks, the action of the preparations is assessed visually in comparison to untreated controls (herbicidal action in percent (%): 100% activity=the plants have died, 0% activity=like control plants). […] The tables below illustrate, in an illustrative manner, the post-emergence herbicidal action of the compounds of the invention, the herbicidal activity being stated in percent.

[3] = system: Alopecurus myosuroides; test: Pre-emergence herbicidal action against ALOMY; conditions: 80 g/ha; visual score after 3 weeks vs untreated controls
Text: as §1

[4] = system: Avena fatua; test: Pre-emergence herbicidal action against AVEFA; conditions: 80 g/ha; visual score after 3 weeks vs untreated controls
Text: as §1

[5] = system: Polygonum convolvulus; test: Pre-emergence herbicidal action against POLCO; conditions: 80 g/ha
Text: as §1

[6] = system: Matricaria inodora; test: Pre-emergence herbicidal action against MATIN; conditions: visual score after 3 weeks vs untreated controls
Text: as §1

[7] = system: Amaranthus retroflexus; test: Post-emergence herbicidal action against AMARE; conditions: visual assessment about 3 weeks after treatment
Experimental: as §2

[8] = system: Amaranthus retroflexus; test: Pre-emergence herbicidal action against AMARE; conditions: visual score after 3 weeks vs untreated controls
Text: as §1

[9] = system: Alopecurus myosuroides; test: Post-emergence herbicidal action against ALOMY
Experimental: as §2

[10] = system: Abutilon theophrasti; test: Post-emergence herbicidal action against ABUTH
Experimental: as §2

[11] = system: Echinochloa crus-galli; test: Post-emergence herbicidal action against ECHCG; conditions: visual assessment about 3 weeks after treatment
Experimental: as §2

[12] = system: Setaria viridis; test: Post-emergence herbicidal action against SETVI; conditions: visual assessment about 3 weeks after treatment
Experimental: as §2

[13] = system: Viola tricolor; test: Pre-emergence herbicidal action against VIOTR
Text: as §1

[14] = system: Matricaria inodora; test: Post-emergence herbicidal action against MATIN; conditions: visual assessment about 3 weeks after treatment
Experimental: as §2

[15] = system: Veronica persica; test: Post-emergence herbicidal action against VERPE; conditions: visual assessment about 3 weeks after treatment
Experimental: as §2

[16] = system: Veronica persica; test: Pre-emergence herbicidal action against VERPE
Text: as §1

[17] = system: Setaria viridis; test: Pre-emergence herbicidal action against SETVI
Text: as §1

[18] = system: Echinochloa crus-galli; test: Pre-emergence herbicidal action against ECHCG; conditions: visual score after 3 weeks vs untreated controls
Text: as §1

[19] = system: Digitaria sanguinalis; test: Pre-emergence herbicidal action against DIGSA
Text: as §1

[20] = system: Stellaria media; test: Post-emergence herbicidal action against STEME; conditions: 80 g/ha, visual assessment about 3 weeks after treatment
Experimental: as §2

[21] = system: Stellaria media; test: Pre-emergence herbicidal action against STEME; conditions: 320 g/ha
Text: as §1

[22] = system: Cyperus esculentus; test: Pre-emergence herbicidal action against CYPES; conditions: visual score after 3 weeks vs untreated controls
Text: as §1

[23] = system: Pharbitis purpurea; test: Post-emergence herbicidal action against PHBPU; conditions: visual assessment about 3 weeks after treatment
Experimental: as §2

Row | SMILES | Pre-emergence action against ABUTH ([1]; 80 g/ha) | Post-emergence action against VIOTR in % ([2]; 20 g/ha) | Pre-emergence action against ALOMY [3] | Pre-emergence action against POLCO [5] | Pre-emergence action against MATIN ([6]; 20 g/ha) | Pre-emergence action against MATIN ([6]; 80 g/ha) | Post-emergence action against AMARE in % ([7]; 5 g/ha) | Post-emergence action against AMARE in % ([7]; 20 g/ha) | Pre-emergence action against AMARE ([8]; 20 g/ha) | Pre-emergence action against AMARE ([8]; 80 g/ha) | Post-emergence action against ALOMY ([9]; 20 g/ha) | Post-emergence action against ABUTH ([10]; 5 g/ha) | Post-emergence action against ABUTH ([10]; 20 g/ha) | Post-emergence action against ECHCG in % ([11]; 20 g/ha) | Post-emergence action against SETVI in % ([12]; 20 g/ha) | Pre-emergence action against VIOTR ([13]; 80 g/ha) | Post-emergence action against MATIN in % ([14]; 20 g/ha) | Post-emergence action against VERPE in % ([15]; 20 g/ha) | Pre-emergence action against VERPE ([16]; 80 g/ha) | Pre-emergence action against ECHCG ([18]; 80 g/ha) | also measured
1 | CCN(C)C(=O)c1c(C(F)F)ccc(C(=O)Nc2nnnn2CC)c1C [Example 2-51] | 100% | 90% | 100% | 90% | 90% | 100% | 90% | 100% | 90% | 90% | 90% | 90% | 90% | 90% | 90% | 80% | 80% | 90% | – | – | Pre-emergence action against ABUTH ([1]; 20 g/ha): 100%; Post-emergence action against VIOTR in % ([2]; 5 g/ha): 90%; Pre-emergence action against AVEFA [4]: 80%; Post-emergence action against ALOMY ([9]; 5 g/ha): 80%; Post-emergence action against SETVI in % ([12]; 5 g/ha): 80%
2 | Cc1c(C(=O)Nc2nnnn2C)ccc(C(F)(F)F)c1C(=O)N(C)C1CC1 [Example 1-21] | 100% | – | 90% | – | 80% | 100% | – | – | 100% | 100% | 80% | – | – | 90% | 90% | 100% | 80% | 80% | 80% | 90% | Pre-emergence action against SETVI ([17]; 80 g/ha): 100%; Pre-emergence action against VIOTR ([13]; 20 g/ha): 90%; Pre-emergence action against DIGSA ([19]; 20 g/ha): 100%; Pre-emergence action against DIGSA ([19]; 80 g/ha): 100%
3 | Cc1c(C(=O)Nc2nnnn2C)ccc(S(C)(=O)=O)c1C(=O)N(C)C [Example 1-395] | 90% | – | – | – | – | – | – | – | – | 100% | – | – | – | 100% | – | 80% | – | – | 100% | – | Pre-emergence action against ABUTH ([1]; Dosage column 320 g/ha (heading prints 3200 g/ha)): 100%; Post-emergence action against VIOTR in % ([2]; 80 g/ha): 90%; Pre-emergence action against MATIN ([6]; 320 g/ha): 100%; Post-emergence action against AMARE in % ([7]; 80 g/ha): 80%; Pre-emergence action against AMARE ([8]; 320 g/ha): 100%; Post-emergence action against STEME in % [20]: 100%; Post-emergence action against ABUTH ([10]; 80 g/ha): 100%; Pre-emergence action against VERPE ([16]; 20 g/ha): 90%; Pre-emergence action against VERPE ([16]; 320 g/ha): 100%; Post-emergence action against ECHCG in % ([11]; 80 g/ha): 100%; Pre-emergence action against SETVI ([17]; 320 g/ha): 100%; Pre-emergence action against STEME [21]: 100%; Pre-emergence action against ECHCG ([18]; 320 g/ha): 100%; Pre-emergence action against CYPES ([22]; 80 g/ha): 100%; Pre-emergence action against CYPES ([22]; 320 g/ha): 100%; Post-emergence action against SETVI in % ([12]; 80 g/ha): 90%; Pre-emergence action against VIOTR ([13]; 320 g/ha): 100%
4 | CCn1nnnc1NC(=O)c1ccc(C(F)F)c(C(=O)N(C)C)c1C [Example 2-50] | 100% | 90% | 90% | 90% | 90% | 90% | 100% | 100% | 90% | 100% | 80% | 90% | 90% | 90% | 80% | – | – | 90% | 80% | 80% | Post-emergence action against ECHCG in % ([11]; 5 g/ha): 80%
5 | CN(C(=O)c1c(C(F)F)ccc(C(=O)Nc2nnnn2C)c1Cl)C1CC1 [Example 1-156] | 100% | 90% | 100% | 80% | 90% | 100% | 100% | 100% | 100% | 100% | 90% | 90% | 90% | 90% | 90% | 100% | 90% | 80% | 90% | 90% | Pre-emergence action against ABUTH ([1]; 20 g/ha): 100%; Post-emergence action against VIOTR in % ([2]; 5 g/ha): 90%; Pre-emergence action against AVEFA [4]: 80%; Post-emergence action against ALOMY ([9]; 5 g/ha): 80%; Post-emergence action against ECHCG in % ([11]; 5 g/ha): 90%; Pre-emergence action against SETVI ([17]; 80 g/ha): 100%; Post-emergence action against SETVI in % ([12]; 5 g/ha): 90%; Post-emergence action against MATIN in % ([14]; 5 g/ha): 80%; Post-emergence action against PHBPU in % ([23]; 5 g/ha): 80%; Post-emergence action against PHBPU in % ([23]; 20 g/ha): 90%; Post-emergence action against VERPE in % ([15]; 5 g/ha): 80%
